Reference: patent publication US20190374563A1, “TREATMENT OF KLEBSIELLA PNEUMONIAE INFECTIONS WITH ANTIBACTERIAL AMINOGLYCOSIDE COMPOUNDS” (Achaogen, Inc., priority 2009, published 2019)
In brackets after ≈: the same amount, converted by molar mass. Like-named read-outs stand apart in the source and are kept apart here.

Columns and labels:
[1] = system: P. aeruginosa ATCC 27853 (APAE001); assay: MIC assay, CLSI broth microdilution; type: cell-based; conditions: Pseudomonas aeruginosa
Method: (§1) Minimum inhibitory concentrations (MIC) were determined by reference Clinical and Laboratory Standards Institute (CLSI) broth microdilution methods per M7-A7 [2006]. Quality control ranges utilizing E. coli ATCC 25922, P. aeruginosa ATCC 27853 and S. aureus ATCC 29213, and interpretive criteria for comparator agents were as published in CLSI M100-S17 [2007]. Briefly, serial two-fold dilutions of the test compounds were prepared at 2× concentration in Mueller Hinton Broth. The compound dilutions were mixed in 96-well assay plates in a 1:1 ratio with bacterial inoculum. The inoculum was prepared by suspension of a colony from an agar plate that was prepared the previous day. Bacteria were suspended in sterile saline and added to each assay plate to obtain a final concentration of 5×10^5 CFU/mL. The plates were incubated at 35° C. for 20 hours in ambient air.

[2] = system: E. coli ATCC 25922 (AECO001); assay: MIC assay, CLSI broth microdilution; type: cell-based; design: MIC AECO001: unit not given here; conditions: for MIC: Escherichia coli
Method: as §1

[3] = ATCC27853, read-out: MIC APAE001
[4] = ATCC25922, read-out: MIC AECO001

Row | Structure (SMILES) | MIC ([1]; Table 1, APAE001 is ATCC27853, read-out: MIC APAE001) [µg/mL] | MIC ([2]; Table 1, AECO001 is ATCC25922, read-out: MIC AECO001) [µg/mL] | MIC AECO001 ([2]; Table 3, E. coli ATCC25922) | MIC [1, 3] [µg/mL] | MIC [2, 4] [µg/mL]
1 | CNCC1=CC[C@@H](N)[C@@H](O[C@H]2[C@H](O)[C@@H](O[C@H]3OC[C@](C)(O)[C@H](NC)[C@H]3O)[C@H](NC(=O)C3(O)CNC3)C[C@@H]2N)O1 [Example 61] | 1 to 16 (≈ 1.78 to 28.5 µM) | < 1 | 1 |  | 
2 | CN[C@@H]1[C@@H](O)[C@@H](O[C@@H]2[C@@H](O)[C@H](O[C@H]3OC(CNCCO)=CC[C@H]3N)[C@@H](N)C[C@H]2NC(=O)C2(O)CC(N)C2)OC[C@]1(C)O (stereo partly shown) [Example 62] |  |  |  | 1 to 16 (≈ 1.65 to 26.5 µM) | < 1
3 | CN[C@@H]1[C@@H](O)[C@@H](O[C@@H]2[C@@H](O)[C@H](O[C@H]3OC(CNC[C@H]4C[C@H](N)C4)=CC[C@H]3N)[C@@H](N)C[C@H]2NC(=O)C2(O)CNC2)OC[C@]1(C)O [Example 63] |  |  |  | 1 to 16 (≈ 1.59 to 25.4 µM) | < 1
4 | CN[C@@H]1[C@@H](O)[C@@H](O[C@@H]2[C@@H](O)[C@H](O[C@H]3OC(CNC[C@@H]4C[C@H](N)CN4)=CC[C@H]3N)[C@@H](N)C[C@H]2NC(=O)[C@@H](O)CN)OC[C@]1(C)O [Example 65, 6′-(Methyl-4(S)-amino-pyrrolidin-2(S)-yl)-1-(3-amino-2(S)-hydroxy-propionyl)-sisomicin] |  |  |  | 1 to 16 (≈ 1.58 to 25.3 µM) | 1 to 16 (≈ 1.58 to 25.3 µM)
5 | CN[C@@H]1[C@@H](O)[C@@H](O[C@@H]2[C@@H](O)[C@H](O[C@H]3OC(CNCC4(CN)CC4)=CC[C@H]3N)[C@@H](N)C[C@H]2NC(=O)[C@@H](O)CN)OC[C@]1(C)O [Example 66, 6′-(Methyl-1-aminomethyl-cyclopropyl)-1-(3-amino-2(S)-hydroxy-propionyl)-sisomicin] |  |  |  | 1 to 16 (≈ 1.62 to 25.9 µM) | < 1
6 | CN[C@@H]1[C@@H](O)[C@@H](O[C@@H]2[C@@H](O)[C@H](O[C@H]3OC(CNCC4(N)CC4)=CC[C@H]3N)[C@@H](N)C[C@H]2NC(=O)[C@@H](O)CN)OC[C@]1(C)O [Example 67, 6′-(Methyl-1-Amino-cyclopropyl)-1-(3-amino-2(S)-hydroxy-propionyl)-sisomicin] |  |  |  | 1 to 16 (≈ 1.66 to 26.5 µM) | 1 to 16 (≈ 1.66 to 26.5 µM)
7 | CN[C@@H]1[C@@H](O)[C@@H](O[C@@H]2[C@@H](O)[C@H](O[C@H]3OC(CNCC(O)CCN)=CC[C@H]3N)[C@@H](N)C[C@H]2NC(=O)[C@@H](O)CN)OC[C@]1(C)O (stereo partly drawn) [Example 68, 6′-(2-Hydroxy-4-amino-butyl)-1-(3-amino-2(S)-hydroxy-propionyl)-sisomicin] |  |  |  | 1 to 16 (≈ 1.61 to 25.7 µM) | 1 to 16 (≈ 1.61 to 25.7 µM)
8 | CN[C@@H]1[C@@H](O)[C@@H](O[C@@H]2[C@@H](O)[C@H](O[C@H]3OC(CNC[C@H]4C[C@@H](N)[C@@H](O)C4)=CC[C@H]3N)[C@@H](N)C[C@H]2NC(=O)[C@@H](O)CN)OC[C@]1(C)O [Example 69, 6′-(Methyl-1(R)-amino-2(S)-hydroxy-cyclopent-4(S)-yl)-1-(3-amino-2(S)-hydroxy-propionyl)-sisomicin] |  |  |  | 1 to 16 (≈ 1.54 to 24.7 µM) | < 1
9 | CN[C@@H]1[C@@H](O)[C@@H](O[C@@H]2[C@@H](O)[C@H](O[C@H]3OC(CNCCC4(O)CNC4)=CC[C@H]3N)[C@@H](N)C[C@H]2NC(=O)[C@@H](O)CN)OC[C@]1(C)O [Example 70, 6′-(Ethyl-2-(3-hydroxy-azetidin-3-yl))-1-(3-amino-2(S)-hydroxy-propionyl)-sisomicin] |  |  |  | > 16 | 1 to 16 (≈ 1.58 to 25.2 µM)
10 | CN[C@@H]1[C@@H](O)[C@@H](O[C@@H]2[C@@H](O)[C@H](O[C@H]3OC(CNCC4CC4)=CC[C@H]3N)[C@@H](N)C[C@H]2NC(=O)C(O)C2CNC2)OC[C@]1(C)O (stereo partly shown) [Example 71, 6′-Methylcyclopropyl-1-(2-(azetidin-3-yl)-2-hydroxy-acetyl)-sisomicin] |  |  |  | > 16 | 1 to 16 (≈ 1.63 to 26 µM)
11 | CN[C@@H]1[C@@H](O)[C@@H](O[C@@H]2[C@@H](O)[C@H](O[C@H]3OC(CNC[C@H]4C[C@H](N)C4)=CC[C@H]3N)[C@@H](N)C[C@H]2NC(=O)C(O)C2CNC2)OC[C@]1(C)O (stereo partly drawn) [Example 72, 6′-(Methyl-trans-3-amino-cyclobutyl)-1-(2-(azetidin-3-yl)-2-hydroxy-acetyl)-sisomicin] |  |  |  | 1 to 16 (≈ 1.55 to 24.9 µM) | 1 to 16 (≈ 1.55 to 24.9 µM)
12 | CN[C@@H]1[C@@H](O)[C@@H](O[C@@H]2[C@@H](O)[C@H](O[C@H]3OC(CNCC4CNC4)=CC[C@H]3N)[C@@H](N)C[C@H]2NC(=O)[C@@H](O)CN)OC[C@]1(C)O [Example 73, 6′-(Methyl-azetidin-3-yl)-1-(3-amino-2(S)-hydroxy-propionyl)-sisomicin] |  |  |  | 1 to 16 (≈ 1.66 to 26.5 µM) | 1 to 16 (≈ 1.66 to 26.5 µM)
13 | CN[C@@H]1[C@@H](O)[C@@H](O[C@@H]2[C@@H](O)[C@H](O[C@H]3OC(CNCC4(CN)CC4)=CC[C@H]3N)[C@@H](N)C[C@H]2NC(=O)C(O)C2CNC2)OC[C@]1(C)O (stereo partly shown) [Example 74, 6′-(Methyl-1-aminomethyl-cyclopropyl)-1-(2-(azetidin-3-yl)-2-hydroxy-acetyl)-sisomicin] |  |  |  | > 16 | 1 to 16 (≈ 1.55 to 24.9 µM)
14 | CN[C@@H]1[C@@H](O)[C@@H](O[C@@H]2[C@@H](O)[C@H](O[C@H]3OC(CNCCO)=CC[C@H]3N)[C@@H](N)C[C@H]2NC(=O)C(O)C2CNC2)OC[C@]1(C)O (stereo partly shown) [Example 75, 6′-(2-Hydroxy-ethyl)-1-(2-(azetidin-3-yl)-2-hydroxy-acetyl)-sisomicin] |  |  |  | > 16 | 1 to 16 (≈ 1.65 to 26.5 µM)
15 | CN[C@@H]1[C@@H](O)[C@@H](O[C@@H]2[C@@H](O)[C@H](O[C@H]3OC(CNCCCN)=CC[C@H]3N)[C@@H](N)C[C@H]2NC(=O)C(O)C2CNC2)OC[C@]1(C)O (stereo partly shown) [Example 76, 6′-(3-Amino-propyl)-1-(2-(azetidin-3-yl)-2-hydroxy-acetyl)-sisomicin] |  |  |  | 1 to 16 (≈ 1.62 to 25.9 µM) | 1 to 16 (≈ 1.62 to 25.9 µM)
16 | CN[C@@H]1[C@@H](O)[C@@H](O[C@@H]2[C@@H](O)[C@H](O[C@H]3OC(CNCC(O)CCN)=CC[C@H]3N)[C@@H](N)C[C@H]2NC(=O)C(O)C2CNC2)OC[C@]1(C)O (stereo partly shown) [Example 77, 6′-(2-Hydroxy-4-amino-butyl)-1-(2-(azetidin-3-yl)-2-hydroxy-acetyl)-sisomicin] |  |  |  | 1 to 16 (≈ 1.54 to 24.7 µM) | 1 to 16 (≈ 1.54 to 24.7 µM)
17 | CN[C@@H]1[C@@H](O)[C@@H](O[C@@H]2[C@@H](O)[C@H](O[C@H]3OC(CNC[C@H]4C[C@H](N)C4)=CC[C@H]3N)[C@@H](N)C[C@H]2NC(=O)C2(O)CCNC2)OC[C@]1(C)O (stereo partly drawn) [Example 78, 6′-(Methyl-trans-3-amino-cyclobutyl)-1-(3-hydroxy-pyrrolidin-3-yl-acetyl)-sisomicin] |  |  |  | 1 to 16 (≈ 1.55 to 24.9 µM) | < 1
18 | CN[C@@H]1[C@@H](O)[C@@H](O[C@@H]2[C@@H](O)[C@H](O[C@H]3OC(CNCC4(CN)CC4)=CC[C@H]3N)[C@@H](N)C[C@H]2NC(=O)C2(O)CCNC2)OC[C@]1(C)O (stereo partly shown) [Example 79] |  |  |  | > 16 | 1 to 16 (≈ 1.55 to 24.9 µM)
19 | CN[C@@H]1[C@@H](O)[C@@H](O[C@@H]2[C@@H](O)[C@H](O[C@H]3OC(CNCCCC(O)CN)=CC[C@H]3N)[C@@H](N)C[C@H]2NC(=O)[C@@H](O)CN)OC[C@]1(C)O (stereo partly drawn) [Example 80, 6′-(4-Hydroxy-5-amino-pentyl)-1-(3-amino-2(S)-hydroxy-propionyl)-sisomicin] |  |  |  | < 1 | < 1
20 | CN[C@@H]1[C@@H](O)[C@@H](O[C@@H]2[C@@H](O)[C@H](O[C@H]3OC(CNCCNC4CNC4)=CC[C@H]3N)[C@@H](N)C[C@H]2NC(=O)[C@@H](O)CN)OC[C@]1(C)O [Example 81, 6′-(N-(Azetidin-3-yl)-2-amino-ethyl)-1-(3-amino-2(S)-hydroxy-propionyl)-sisomicin] |  |  |  | > 16 | 1 to 16 (≈ 1.58 to 25.3 µM)
21 | CN[C@@H]1[C@@H](O)[C@@H](O[C@@H]2[C@@H](O)[C@H](O[C@H]3OC(CNCC(O)CN)=CC[C@H]3N)[C@@H](N)C[C@H]2NC(=O)C(O)C2CNC2)OC[C@]1(C)O (stereo partly shown) [Example 82, 6′-(2-Hydroxy-3-amino-propyl)-1-(2-(azetidin-3-yl)-2-hydroxy-acetyl)-sisomicin] |  |  |  | > 16 | 1 to 16 (≈ 1.58 to 25.2 µM)
22 | CN[C@@H]1[C@@H](O)[C@@H](O[C@@H]2[C@@H](O)[C@H](O[C@H]3OC(CNCC4(O)CC(N)C4)=CC[C@H]3N)[C@@H](N)C[C@H]2NC(=O)C(O)C2CNC2)OC[C@]1(C)O (stereo partly shown) [Example 83, 6′-(Methyl-3-amino-1-hydroxy-cyclobutyl)-1-(2-(azetidin-3-yl)-2-hydroxy-acetyl)-sisomicin] |  |  |  | > 16 | 1 to 16 (≈ 1.52 to 24.3 µM)
23 | CN[C@@H]1[C@@H](O)[C@@H](O[C@@H]2[C@@H](O)[C@H](O[C@H]3OC(CN)=CC[C@H]3NCC3CCNC3)[C@@H](N)C[C@H]2NC(=O)[C@@H](O)CCN)OC[C@]1(C)O (stereo partly drawn) [Example 84, 2′-(Methyl-pyrrolidin-3-yl)-1-(4-amino-2(S)-hydroxy-butyryl)-sisomicin] |  |  |  | 1 to 16 (≈ 1.58 to 25.3 µM) | < 1
24 | CN[C@@H]1[C@@H](O)[C@@H](O[C@@H]2[C@@H](O)[C@H](O[C@H]3OC(CN)=CC[C@H]3NCC3CCCN3)[C@@H](N)C[C@H]2NC(=O)[C@@H](O)CCN)OC[C@]1(C)O (stereo partly drawn) [Example 85, 2′-(Methyl-pyrrolidin-2-yl)-1-(4-amino-2(S)-hydroxy-butyryl)-sisomicin] |  |  |  | 1 to 16 (≈ 1.58 to 25.3 µM) | < 1
